Read-outs that look alike come from different tables or passages of the source.
How the values were obtained:
11β-hsd-1 enzyme [1] = target: T1, 11β-hsd-1 enzyme (Homo sapiens, UniProt P28845); test: 11β-hsd-1 enzyme assay, Kiapp determination (3H-cortisone to cortisol, radio-HPLC); type: biochemical; details: read-out: Ki app
11β-hsd-1 enzyme [2] = target: T1, 11β-hsd-1 enzyme; test: 11β-hsd-1 enzyme assay, percentage of inhibition (3H-cortisone to cortisol, radio-HPLC); type: biochemical; details: read-out: % inh @ 0.1 uM

T1 sequence (P28845 whole entry, species assumed): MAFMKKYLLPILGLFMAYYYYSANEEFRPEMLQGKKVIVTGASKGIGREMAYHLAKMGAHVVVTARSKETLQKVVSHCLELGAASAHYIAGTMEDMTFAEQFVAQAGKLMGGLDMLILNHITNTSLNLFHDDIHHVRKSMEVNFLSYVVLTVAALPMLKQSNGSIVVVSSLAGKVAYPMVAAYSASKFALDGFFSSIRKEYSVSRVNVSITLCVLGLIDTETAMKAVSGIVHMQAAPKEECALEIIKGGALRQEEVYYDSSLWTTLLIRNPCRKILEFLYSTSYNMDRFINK

| SMILES | Ki (11β-hsd-1 enzyme [1]) [nM] | inhibition at 0.1 µM (11β-hsd-1 enzyme [2]; 0.1 uM) [%] | Ki (11β-hsd-1 enzyme [1]; apparent Ki, 11β-hsd-1 enzyme) [nM] | inhibition at 0.1 µM (11β-hsd-1 enzyme [2]; compound at 0.1 uM) [%] |
| --- | --- | --- | --- | --- |
| Cc1cc(C)nc(NS(=O)(=O)c2ccc(-c3ccccc3)cc2)c1 [Example 65] | 18.3 | 59.4 | – | – |
| COc1ccc(-c2ccc(S(=O)(=O)Nc3cccc(C)n3)c(C)c2)cc1C [Example 205] | – | – | 19 | 86 |
| N#Cc1ccc(-c2ccc(S(=O)(=O)Nc3cccc(C4CC4)n3)cn2)cc1 [Example 293, 6-(4-Cyano-phenyl)-pyridine-3-sulfonic acid (6-cyclopropyl-pyridin-2-yl)-amide] | – | – | 6.4 | 100 |
| N#Cc1ccc(-c2ccc(S(=O)(=O)Nc3cccc(C4CC4)n3)cc2)cc1 [Example 112, 4′-Cyano-biphenyl-4-sulfonic acid (6-cyclopropyl-pyridin-2-yl)-amide] | 1.9 | 100 | – | – |
| N#Cc1ccc(-c2ccc(S(=O)(=O)Nc3ccc4ccccc4n3)cc2)cn1 [Example 289] | – | – | 68 | 73.9 |
| CCOc1ccc(-c2ccc(S(=O)(=O)Nc3cccc(C)n3)cc2)c(C)c1 [Example 254] | – | – | 22.4 | 85.4 |
| COc1ccc(NS(=O)(=O)c2sc3ccc(Cl)cc3c2C)nn1 [Example 68] | 8.3 | 100 | – | – |
| Cc1cc(C)nc(NS(=O)(=O)N2CCC(c3ccc(C#N)cc3)CC2)c1 [Example 311] | – | – | 2.6 | 100 |
| N#Cc1ccc(-c2ccc(S(=O)(=O)Nc3cccc(CCO)n3)cc2)cc1 [Example 117] | 26.2 | 84.8 | – | – |
| Cc1cccc(NS(=O)(=O)c2ccc(-c3ccc(C#N)cc3)c(C(F)(F)F)c2)n1 [Example 285, 4′-Cyano-2-trifluoromethyl-biphenyl-4-sulfonic acid (6-methyl-pyridin-2-yl)-amide] | – | – | 2.9 | 100 |
| CCCCc1ccc(-c2ccc(S(=O)(=O)Nc3cccc(C)n3)c(C)c2)cc1 [Example 209] | – | – | 18 | 88 |
| Cc1cccc(NS(=O)(=O)c2ccc(-c3ccc(F)cc3C)cc2C)n1 [Example 204] | – | – | 10 | 85 |
| Cc1cccc(NS(=O)(=O)c2ccc(-c3ccccc3)cc2)n1 [Example 36] | 48 | 52 | – | – |
| Cc1cccc(NS(=O)(=O)c2ccc(-c3cccc(C)c3C)cc2C)n1 [Example 197] | – | – | 29 | 89 |
| Cc1cccc(NS(=O)(=O)c2ccc(-c3cc(F)ccc3F)cc2C)n1 [Example 202] | – | – | 14 | 88 |
| Cc1cccc(NS(=O)(=O)c2ccc(-c3ccc(Cl)cc3)cc2)n1 [Example 249, 4′-Chloro-biphenyl-4-sulfonic acid (6-methyl-pyridin-2-yl)-amide] | – | – | 5.8 | 96 |
| Cc1cc(C)nc(NS(=O)(=O)c2ccc(-c3ccc(C#N)cc3)cc2)c1 [Example 96] | 7 | 100 | – | – |
| Cc1cc(-c2ccc(S(=O)(=O)Nc3cccc(N)n3)cc2)ccc1C#N [Example 282, 4′-Cyano-3′-methyl-biphenyl-4-sulfonic acid (6-amino-pyridin-2-yl)-amide] | – | – | < 1 | 100 |
| Cc1cc(-c2ccc(S(=O)(=O)Nc3ccc4ccccc4n3)cn2)ccc1F [Example 292] | – | – | 49 | 72.4 |
| Cc1cccc(NS(=O)(=O)c2ccc(-c3cc(F)c(F)c(F)c3)cc2C)n1 [Example 184] | 12 | 97 | – | – |
| COc1ccc(-c2ccc(S(=O)(=O)Nc3cccc(C)n3)cc2C)cc1 [Example 216] | – | – | 43 | 73 |
| CCOC(=O)Cc1cccc(NS(=O)(=O)c2cccc(Cl)c2C)n1 [Example 1, Ethyl [6-(3-Chloro-2-methyl-benzenesulfonylamino)-pyridin-2-yl]-acetate] | 42 | 72.3 | – | – |
| Cc1ccc(-c2ccc(S(=O)(=O)Nc3cccc(C)n3)cc2C)cc1 [Example 215] | – | – | 16 | 90 |

| SMILES | Ki (11β-hsd-1 enzyme [1]) [nM] | inhibition at 0.1 µM (11β-hsd-1 enzyme [2]; 0.1 uM) [%] | Ki (11β-hsd-1 enzyme [1]; apparent Ki, 11β-hsd-1 enzyme) [nM] | inhibition at 0.1 µM (11β-hsd-1 enzyme [2]; compound at 0.1 uM) [%] |
| --- | --- | --- | --- | --- |
| Cc1cccc(NS(=O)(=O)c2ccc(-c3cccc(C(C)C)c3)cc2C)n1 [Example 193] | 39 | 78 | – | – |
| Cc1cc(C)nc(NS(=O)(=O)N2CCc3ccccc3C2)c1 [Example 304] | – | – | 20 | 79.6 |
| Cc1cccc(NS(=O)(=O)c2ccc(-c3cc(F)cc(F)c3)c(C)c2)n1 [Example 225] | – | – | 16 | 28 |
| Cc1cccc(NS(=O)(=O)c2ccc(-c3cccc(C(C)C)c3)c(C)c2)n1 [Example 236] | – | – | 110 | 81 |
| Cc1cccc(NS(=O)(=O)c2ccc(-c3ccc(C#N)cc3)cc2O)n1 [Example 286, 4′-Cyano-3-hydroxy-biphenyl-4-sulfonic acid (6-methyl-pyridin-2-yl)-amide] | – | – | 6.2 | 100 |
| Cc1cccc(NS(=O)(=O)c2ccc(-c3ccc(F)cc3)cc2)n1 [Example 128] | 19.7 | 86.8 | – | – |
| COc1ccc(-c2ccc(S(=O)(=O)Nc3cccc(C)n3)c(C)c2)cc1F [Example 187] | 9.5 | 93 | – | – |
| Cc1cccc(NS(=O)(=O)c2ccc(-c3ccccc3C)cc2C)n1 [Example 172] | 48 | 82 | – | – |
| Cc1cccc(NS(=O)(=O)c2ccc(-c3ccc(C#N)c(Cl)c3)cc2)n1 [Example 274] | – | – | 3.5 | 94.4 |
| COc1ccc(-c2ccc(S(=O)(=O)Nc3cccc(C)n3)cc2)cn1 [Example 256] | – | – | 34.9 | 89.3 |
| CCc1cccc(NS(=O)(=O)c2ccc(C(F)(F)F)cc2)n1 [Example 71] | 34.6 | 66 | – | – |
| Cc1cccc(NS(=O)(=O)c2ccc(-c3ccccc3Cl)cc2C)n1 [Example 164] | 13 | 93 | – | – |
| O=S(=O)(Nc1cccc(C2CC2)n1)c1ccc(-c2ccc(C(F)(F)F)cc2)nc1 [Example 294] | – | – | 7.3 | 94.6 |
| CCN(CC)C(=O)Cc1cccc(NS(=O)(=O)c2sc3ccc(Cl)cc3c2C)n1 [Example 19, 2-[6-(5-Chloro-3-methyl-benzo[b]thiophene-2-sulfonylamino)-pyridin-2-yl]-N,N-diethyl-acetamide] | 4.8 | 96.9 | – | – |
| Cc1cccc(NS(=O)(=O)c2ccc(-c3ccc4c(c3)OCCO4)cc2C)n1 [Example 206] | – | – | 20 | 87 |
| Cc1cccc(NS(=O)(=O)c2ccc(-c3ccc(F)c(Cl)c3)cc2C)n1 [Example 170] | 8.1 | 93 | – | – |
| Cc1cccc(NS(=O)(=O)c2cc3ccccc3s2)n1 [Example 72] | 30.9 | 74.6 | – | – |
| Cc1cccc(NS(=O)(=O)c2ccc(-c3cccc(C#N)c3)cc2C)n1 [Example 177] | 20 | 85 | – | – |
| Cc1cccc(NS(=O)(=O)c2ccc(-c3ccc(F)c(Cl)c3)c(C)c2)n1 [Example 219] | – | – | 17 | 68 |
| Cc1cccc(NS(=O)(=O)c2sc3ccc(C#N)cc3c2C)n1 [Example 91] | 2.3 | 100 | – | – |
| CCc1cccc(NS(=O)(=O)c2cccc(Cl)c2C)n1 [Example 56] | 47.6 | 66.8 | – | – |
| Nc1cccc(NS(=O)(=O)c2ccc(-c3ccc(Cl)cc3)cc2)n1 [Example 42] | 4.6 | 96 | – | – |
